Results reported in ChEMBL document CHEMBL1201862, “PubChem BioAssay data set” (2004).
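Method: 48-hour compound exposure of cells in 96-well plates, five concentrations, linear interpolation of endpoints. GI50: concentration for 50% inhibition of growth.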 Activity calls are given as the source filed them. No stated cut-off is given here; in the data, active = GI50 up to about 1.1 µM and inactive = higher.

Experiments:
Experiment in all cases: DTP human tumour cell line panel, 48 h
A549 = system: A549
786-0 = system: 786-0
NCI-H226 = system: NCI-H226
EKVX = system: EKVX
NCI/ADR-RES = system: NCI/ADR-RES
KM12 = system: KM12
SNB-19 = system: SNB-19
NCI-H522 = system: NCI-H522
ACHN = system: ACHN
SW-620 = system: SW-620
SF-539 = system: SF-539
A498 = system: A498
HCT-15 = system: HCT-15
SK-OV-3 = system: SK-OV-3
BT-549 = system: BT-549
CAKI-1 = system: CAKI-1
HOP-92 = system: HOP-92
MDA-MB-231 = system: MDA-MB-231
PC-3 = system: PC-3
CCRF-CEM = system: CCRF-CEM

## CC(=O)Nc1sc(Br)cc1S(=O)(=O)c1ccc(Cl)cc1
A549
  GI50: 29.2 µM (inactive)
786-0
  GI50: 26.2 µM (inactive)
NCI-H226
  GI50: 19.1 µM (inactive)
EKVX
  GI50: 37.2 µM (inactive)
NCI/ADR-RES
  GI50: 21.9 µM (inactive)
KM12
  GI50: 20.3 µM (inactive)
SNB-19
  GI50: 46.6 µM (inactive)
NCI-H522
  GI50: 19.3 µM (inactive)
ACHN
  GI50: 34 µM (inactive)
SW-620
  GI50: 71.1 µM (inactive)
SF-539
  GI50: 0.731 µM (active)
A498
  GI50: 47.2 µM (inactive)
HCT-15
  GI50: > 10 µM
SK-OV-3
  GI50: 43.1 µM (inactive)
BT-549
  GI50: 35.6 µM (inactive)
CAKI-1
  GI50: > 100 µM (inactive)
HOP-92
  GI50: 20.1 µM (inactive)
MDA-MB-231
  GI50: > 100 µM (inactive)
PC-3
  GI50: 17.9 µM (inactive)
CCRF-CEM
  GI50: 35.1 µM (inactive)
